As usually defined, the pEC50 is −log10 of the EC50, conventionally taken in molar units.

Molecules are shown by their SMILES. pEC50: −log10 of the molar value. Starred links: 1 amine or outer side, 2 acyl side, 3 side chain; linkers in the order of their positions; H or OH if unused. Residues, ends and D or L forms follow the SMILES beside them. *: point of attachment. C20 diacid = O=C(O)CCCCCCCCCCCCCCCCCCC(=O)*; γGlu = O=C(O)[C@H](CCC(=O)[*:2])N[*:1]

In experiment [1] the target is T1, human calcitonin receptor (hCTR) (Homo sapiens, UniProt P30988).
T1 construct: host or cells: BHK (Baby Hamster Kidney), Hollex-1 cell line
T1 sequence (P30988 25-474): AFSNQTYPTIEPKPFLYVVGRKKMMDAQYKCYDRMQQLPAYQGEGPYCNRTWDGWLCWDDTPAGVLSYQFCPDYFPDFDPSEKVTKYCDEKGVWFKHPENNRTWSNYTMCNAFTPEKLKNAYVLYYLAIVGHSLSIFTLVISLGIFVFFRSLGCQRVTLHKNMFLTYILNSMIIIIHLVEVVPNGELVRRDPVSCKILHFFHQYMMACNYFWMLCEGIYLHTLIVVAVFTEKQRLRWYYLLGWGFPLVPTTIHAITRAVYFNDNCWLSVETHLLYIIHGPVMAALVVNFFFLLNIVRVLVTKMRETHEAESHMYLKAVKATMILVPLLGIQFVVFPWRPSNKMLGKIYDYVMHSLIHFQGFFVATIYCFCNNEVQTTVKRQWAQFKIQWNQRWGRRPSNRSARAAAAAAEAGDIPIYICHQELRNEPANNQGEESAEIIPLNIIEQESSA
The experiment can be described thus: Human calcitonin receptor (hCTR) in vitro potency assay, CRE-luciferase reporter in BHK cells. As to conditions: BHK hCTR/CRE-Luc cells, 3 hours incubation, assay buffer with 1% ovalbumin; read-out: hCalcR potency, EC50. Format: cell-based. The source says: Activation of hCTR leads to increased cellular concentrations of CAMP. Consequently, transcription is activated by promotors containing multiple copies of the CAMP response element (CRE). It is thus possible to measure hCTR activity using a CRE-luciferase reporter gene introduced into Baby Hamster Kidney (BHK) cells co-expressing the hCTR.
A BHK cell line was stably transfected with the human calcitonin receptor (a) and a CRE-responsive luciferase (CRE-Luc) reporter gene according to methods known to the person skilled in the art (Hollex-1 cell line, obtained from Zymogenetics described in U.S. Pat. No. 5,622,839).
(§1) Cells stocks were prepared by culturing of the stably transfected BHK hCTR/CRE-Luc cell line in growth medium consisting of DMEM (Gibco, 31966-021) supplemented with 10% FBS (Gibco, 16140-071), 1% Pen/Strep (Gibco, 15140-122), 0.5 mg/mL Geneticin (Gibco, 10131-027) and 250 nM Methotrexate (Sigma, A6770). Cells at approximately 80-90% confluence were washed once with PBS (Gibco 14190-094) and loosened from the cell flasks with Versene (Gibco, 15040-033) or TrypLE™ (Gibco, 12605-010). After centrifugation, the cell pellet was dissolved and diluted to approximately 2.5×10E6 cells/mL in Recovery™ Cell Culture Freezing Medium (Gibco, 12648-010). Cells were aliquoted and stored at −180° C. until use.
(§2) The assay buffer consisted of DMEM without phenol red (Gibco, 11880-028) supplemented with 1× GlutaMAX (Gibco, 35050-038), 10 mM HEPES (Gibco, 15630-056) and 1% (w/v) ovalbumin (Sigma, A5503).
(§3) To perform the assay, BHK hCTR/CRE-Luc cells were thawed, washed once in PBS and seeded in 40 μL growth medium in a white 384-well culture plate (PerkinElmer, 6007688) at a cell density of 4.000 cells/well on the day before the experiment. The plate was incubated over night at 37° C. in 5% CO2. On the day of the assay, cells were washed once in assay buffer. Serial dilutions (7-fold dilutions, 7 concentrations Pr. compound and one well containing only assay buffer) of comparator compounds and amylin analogues were performed in assay buffer often starting from approximately 10 nM in 96-well plates and 30 μL of each concentration added to the 384-well assay plate with cells. The assay plate was incubated for 3 hours at 37° C. in 5% CO2 after which 30 μL SteadyLite Plus (PerkinElmer, 6066759) was added to each well. The assay plate was sealed, incubated at room temperature with gentle shaking for 5 minutes followed by 30 minutes incubation without shaking while protected from light. Luminescence was detected on a luminescence plate reader e.g. a Synergy 2 (BioTek).

The target in experiment [2] is T2, human amylin receptor (hAMYR3) (Homo sapiens, UniProt O60896+P30988).
T2 construct: host or cells: BHK (Baby Hamster Kidney), Hollex-1 cell line further transfected with RAMP3
T2 sequence (O60896 24-148, one chain of several): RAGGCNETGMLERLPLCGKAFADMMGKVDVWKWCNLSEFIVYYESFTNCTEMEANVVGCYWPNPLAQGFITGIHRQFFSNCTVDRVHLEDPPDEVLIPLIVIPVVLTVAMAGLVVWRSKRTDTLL
The experiment can be described thus: Human amylin receptor (hAMYR3) in vitro potency assay, CRE-luciferase reporter in BHK cells. Format: cell-based. The note with it: BHK hAMYR3/CRE-Luc cells, 3 hours incubation, assay buffer with 1% ovalbumin.
Text: Activation of hAMYR3 leads to increased cellular concentrations of cAMP. Consequently, transcription is activated by promotors containing multiple copies of the CAMP response element (CRE). It is thus possible to measure hAMYR3 activity using a CRE-luciferase reporter gene introduced into Baby Hamster Kidney (BHK) cells co-expressing the hAMYR3.
A BHK cell line was stably transfected with the human calcitonin receptor (a) and a CRE-responsive luciferase (CRE-Luc) reporter gene according to methods known to the person skilled in the art (Hollex-1 cell line, obtained from Zymogenetics described in U.S. Pat. No. 5,622,839). The cell line was further transfected with human receptor modifying protein 3 (RAMP3) using standard methods. This turns the human calcitonin receptor into a human amylin-3(a) receptor.
as §1, with “hAMYR3/CRE-Luc” for “hCTR/CRE-Luc”, “10131-027), 0.4 mg/mL Hygromycin (Invitrogen, 10687010)” for “10131-027)”
as §2
as §3, with “hAMYR3/CRE-Luc” for “hCTR/CRE-Luc”

For the compound `CC[C@H](C)[C@H](NC(=O)[C@@H]1CCCN1C(=O)CNC(=O)[C@H](Cc1ccccc1)NC(=O)[C@H](CC(N)=O)NC(=O)[C@H](CC(=O)O)NC(=O)[C@H](CO)NC(=O)[C@H](CO)NC(=O)[C@H](Cc1c[nH]cn1)NC(=O)[C@H](Cc1c[nH]cn1)NC(=O)[C@H](CC(C)C)NC(=O)[C@H](Cc1ccccc1)NC(=O)[C@H](CCC(=O)O)NC(=O)[C@H](C)NC(=O)[C@H](CC(C)C)NC(=O)[C@H](CCCNC(=N)N)NC(=O)[C@H](CCC(N)=O)NC(=O)[C@@H](NC(=O)[C@H](CCC(N)=O)NC(=O)[C@H](C)NC(=O)[C@@H](NC(=O)[C@H](CO)NC(=O)[C@H](CC(C)C)NC(=O)[C@H](Cc1c[nH]cn1)NC(=O)[C@H](CO)NC(=O)[C@H](C)NC(=O)CC[C@H](NC(=O)CCCCCCCCCCCCCCCCCCC(=O)O)C(=O)O)[C@@H](C)O)[C@@H](C)O)C(=O)N[C@@H](CC(C)C)C(=O)N1CCC[C@H]1C(=O)N1CCC[C@H]1C(=O)N[C@H](C(=O)N[C@@H](CC(=O)O)C(=O)N[C@H](C(=O)NCC(=O)N[C@@H](CO)C(=O)N[C@@H](CC(N)=O)C(=O)N[C@H](C(=O)N1CCC[C@H]1C(N)=O)[C@@H](C)O)C(C)C)[C@@H](C)O` [Compound 3, N^1-[(4S)-4-carboxy-4-(19-carboxynonadecanoylamino)butanoyl]-[Ala1,Ser2,His3,Leu4,Ser5,Ala7,Gln8,Glu14,His17,Asp21,Pro25,Pro28,Pro29,Asp31,Pro37]-human amylin] ({C20 diacid-γGlu}-ASHLSTAQTQRLAEFLHHSSDNFGPILPPTDVGSNTP-NH2), the pEC50 in experiment [1] is 11.89.

For `CC[C@H](C)[C@H](NC(=O)[C@@H]1CCCN1C(=O)CNC(=O)[C@H](Cc1ccccc1)NC(=O)[C@H](Cc1c[nH]cn1)NC(=O)[C@H](Cc1c[nH]cn1)NC(=O)[C@H](CC(C)C)NC(=O)[C@H](Cc1ccccc1)NC(=O)[C@H](CCC(=O)O)NC(=O)[C@H](C)NC(=O)[C@H](CC(C)C)NC(=O)[C@H](CCCNC(=N)N)NC(=O)[C@H](C)NC(=O)[C@@H](NC(=O)[C@H](CCC(N)=O)NC(=O)[C@H](C)NC(=O)[C@@H](NC(=O)[C@H](CO)NC(=O)[C@H](CC(C)C)NC(=O)[C@H](Cc1c[nH]cn1)NC(=O)[C@H](CO)NC(=O)[C@H](C)NC(=O)CC[C@H](NC(=O)CCCCCCCCCCCCCCCCCCC(=O)O)C(=O)O)[C@@H](C)O)[C@@H](C)O)C(=O)N[C@@H](CC(C)C)C(=O)N1CCC[C@H]1C(=O)N1CCC[C@H]1C(=O)N[C@H](C(=O)N[C@@H](CC(=O)O)C(=O)N[C@H](C(=O)NCC(=O)N[C@@H](CO)C(=O)N[C@@H](CCC(=O)O)C(=O)N[C@H](C(=O)N1CCC[C@H]1C(N)=O)[C@@H](C)O)C(C)C)[C@@H](C)O` [Compound 5, N^1-[(4S)-4-carboxy-4-(19-carboxynonadecanoylamino)butanoyl]-[Ala1,Ser2,His3,Leu4,Ser5,Ala7,Gln8,Ala10,Glu14,His17,Pro25,Pro28,Pro29,Asp31,Glu35,Pro37],des-(19-22)-human amylin] ({C20 diacid-γGlu}-ASHLSTAQTARLAEFLHHFGPILPPTDVGSETP-NH2), the pEC50 in experiment [2] was 11.96; in experiment [1], 11.83.

`CC[C@H](C)[C@H](NC(=O)[C@H](C)NC(=O)CNC(=O)[C@H](Cc1ccccc1)NC(=O)[C@@H]1CCCN1C(=O)[C@H](CC(=O)O)NC(=O)[C@H](CO)NC(=O)[C@H](CO)NC(=O)[C@H](Cc1c[nH]cn1)NC(=O)[C@H](Cc1c[nH]cn1)NC(=O)[C@H](CC(C)C)NC(=O)[C@H](Cc1ccccc1)NC(=O)[C@H](CCC(=O)O)NC(=O)[C@H](C)NC(=O)[C@H](CC(C)C)NC(=O)[C@H](CCCNC(=N)N)NC(=O)[C@H](CCC(N)=O)NC(=O)[C@@H](NC(=O)[C@H](CCC(N)=O)NC(=O)[C@H](C)NC(=O)[C@@H](NC(=O)[C@H](CO)NC(=O)[C@H](CC(C)C)NC(=O)[C@H](Cc1c[nH]cn1)NC(=O)[C@H](CO)NC(=O)[C@H](C)NC(=O)CC[C@H](NC(=O)CCCCCCCCCCCCCCCCCCC(=O)O)C(=O)O)[C@@H](C)O)[C@@H](C)O)C(=O)N1CCC[C@H]1C(=O)N[C@@H](CO)C(=O)N[C@@H](CO)C(=O)N[C@H](C(=O)N[C@@H](CC(=O)O)C(=O)N[C@H](C(=O)NCC(=O)N1CCC[C@H]1C(=O)N[C@@H](CC(=O)O)C(=O)N[C@H](C(=O)N1CCC[C@H]1C(N)=O)[C@@H](C)O)C(C)C)[C@@H](C)O` [Compound 6, N^1-[(4S)-4-carboxy-4-(19-carboxynonadecanoylamino)butanoyl]-[Ala1,Ser2,His3,Leu4,Ser5,Ala7,Gln8,Glu14,His17,Asp21,Pro22,Pro27,Asp31,Pro34,Asp35,Pro37]-human amylin] ({C20 diacid-γGlu}-ASHLSTAQTQRLAEFLHHSSDPFGAIPSSTDVGPDTP-NH2): the pEC50 in experiment [1] is 11.90.

Values taken from patent publication US12116388B2, “Amylin receptor agonists” (Novo Nordisk A/S, priority 2022, dated 2024).
